Laboratory results from US4223020A, “Synthetic peptides having pituitary growth hormone releasing activity” (Beckman Instruments, Inc., priority 1979, dated 1980).
Non-standard residues stand in square brackets, D forms with d. Residues, ends and D or L forms follow the SMILES beside them.

Test system: pituitaries removed from 20 day old female rats
Assay: In vitro growth hormone release study (incubated rat pituitaries, GH radioimmunoassay)
Type: cell-based
Conditions: mean ± SEM, two pituitaries in 1 ml lactated Ringer's, 36° C.
Procedure: Female rats of the CD-1 strain were housed in a constant temperature room at 24° C. with 14 hours light and 10 hours darkness. The rats were fed Purina brand rat chow ab libitum.
All studies were started between 0800 and 1000 hours.
Pituitaries were removed from 20 day old female rats. Two pituitaries were incubated at 36° C. in 1 ml of lactated Ringer's solution in 10 ml polytetrafluoroethylene beakers in a Dubnoff Shaker (90 cycles/min.). The pituitaries were incubated a total of 4 hours (P1, P2, I3, and I4). After two successive one hour preincubation periods (P1, P2), the peptide was added to the incubation medium hourly for 2 hours (I3, I4).
This in vitro study was performed in triplicate and a standard radioimmunoassay of growth hormone present in the incubation medium was performed in duplicate. The hormonal activity was calculated as the difference (Δ) of growth hormone (GH) levels between I3, I4 and P2, i.e., (I3 -P2) and (I4 -P2). P values were calculated by Students' t test using six growth hormone values for each value recorded.
The growth hormone radioimmunoassay reagents were distributed by the National Institute of Arthritis and […] (NIAMDD) program. The growth hormone values were calculated in terms of nanograms (ng) of a rat standard with a growth hormone potency of 0.61 units/mg.

NC(=O)[C@H](Cc1ccc(O)cc1)NC(=O)[C@@H](Cc1c[nH]c2ccccc12)NC(=O)[C@@H](Cc1c[nH]c2ccccc12)NC(=O)[C@@H](N)Cc1ccc(O)cc1 [H2 N--Tyr--D-Trp--D-trp--Tyr--CONH2, H2 N-Tyr-D-Trp-D-Trp-Tyr-CONH2] (H-Y[dW][dW]Y-NH2)
In vitro growth hormone release (Δ GH levels, I3-P2 and I4-P2) (0.3μg peptide): 345 ± 103 ng GH/ml incubation medium | In vitro growth hormone release (Δ GH levels, I3-P2 and I4-P2) (1μg peptide): 1111 ± 572 ng GH/ml incubation medium | In vitro growth hormone release (Δ GH levels, I3-P2 and I4-P2) (10μg peptide): 1898 ± 267 ng GH/ml incubation medium

H2 N-Tyr-D-Trp-D-Trp-Phe-CONH2 [H2 N--Tyr--D-Trp--D-Trp--Phe--CONH2]
In vitro growth hormone release (Δ GH levels, I3-P2 and I4-P2) (0.1μg peptide): 453 ± 48 ng GH/ml incubation medium | In vitro growth hormone release (Δ GH levels, I3-P2 and I4-P2) (1μg peptide): 686 ± 82 ng GH/ml incubation medium | In vitro growth hormone release (Δ GH levels, I3-P2 and I4-P2) (10μg peptide): 1790 ± 160 ng GH/ml incubation medium | In vitro growth hormone release (Δ GH levels, I3-P2 and I4-P2) (100μg peptide): 984 ± 355 ng GH/ml incubation medium
